Legend:
multiple animal models = settings: oral dosing; cited from earlier work
refractory solid tumors = assay: Antitumor activity by RECIST 1.1; format: in vivo, human; settings: 30 patients, all dose levels, with capecitabine
clinical = settings: human, in vivo; for AUC(0-inf): AUC0→∞
[1] = tested on: patients with refractory solid tumors; assay: Phase I dose escalation of RO4929097 with capecitabine: toxicity / DLT; format: in vivo
[2] = n=30, worst grade, at least possibly related, with capecitabine

CC(C)(C(=O)NCC(F)(F)C(F)(F)F)C(=O)N[C@@H]1C(=O)Nc2ccccc2-c2ccccc21 [RO4929097]
efficacy maintained post-dosing (multiple animal models): up to 90 days
progressive disease as best response, patients (refractory solid tumors): 60%
stable disease as best response, patients (refractory solid tumors; after three or more cycles): 30%
Cmax (clinical; 20 mg): 358.3 ng/mL
Half Life (clinical; 20 mg): 30.7 h
Cmax (clinical; 20 mg, Cmax): 646 ng/mL
half-life (clinical; 20 mg): 36.2 h
AUC0→∞ (clinical; 30 mg): 16609.4 ng·h/mL
Cmax (clinical; 30 mg): 668.5 ng/mL
Vd (clinical; 30 mg): 88.7 L/h
AUC(0-inf) (clinical; 30 mg): 25900 ng·h/mL
Cmax (clinical; 30 mg, Cmax): 656 ng/mL
Vd (clinical; 30 mg, Vd): 53 L
Half Life (clinical; 45 mg): 9.5 h
Vd (clinical; 45 mg): 118.9 L/h
half-life (clinical; 45 mg): 17.8 h
Vd (clinical; 45 mg, Vd): 63.3 L
AUC0→∞ (clinical; 68 mg): 18050.7 ng·h/mL
Cmax (clinical; 68 mg): 1011.7 ng/mL
Half Life (clinical; 68 mg): 16.0 h
AUC(0-inf) (clinical; 68 mg): 34400 ng·h/mL
Cmax (clinical; 68 mg, Cmax): 1640 ng/mL
half-life (clinical; 68 mg): 15.9 h
AUC0→∞ (clinical; 100 mg): 32748.6 ng·h/mL
Cl (clinical; 100 mg): 3953.9 mL/h
Cmax (clinical; 100 mg): 1473.2 ng/mL
Half Life (clinical; 100 mg): 19.8 h
AUC(0-inf) (clinical; 100 mg): 51900 ng·h/mL
clearance (clinical; 100 mg, Cl): 43.3 mL/min
Cmax (clinical; 100 mg, Cmax): 2390 ng/mL
half-life (clinical; 100 mg): 13.4 h
Vd (clinical; 150 mg): 168.2 L/h
Vd (clinical; 150 mg, Vd): 154 L
Anemia, Grade 1 ([1]; human, in vivo): 0 n (%)
Anemia, Grade 2 ([1]; human, in vivo): 2 (7) n (%)
Anemia, Grade 3 ([1]; human, in vivo): 1 (3) n (%)
Anemia, Grade 4 ([1]; human, in vivo): 0 n (%)
Anemia, Overall ([1]; human, in vivo): 3 (10) n (%)
Anorexia, Grade 1 ([1]; human, in vivo): 5 (17) n (%)
Anorexia, Grade 2 ([1]; human, in vivo): 2 (7) n (%)
Anorexia, Grade 3 ([1]; human, in vivo): 0 n (%)
Anorexia, Grade 4 ([1]; human, in vivo): 0 n (%)
Anorexia, Overall ([1]; human, in vivo): 7 (23) n (%)
Chills, Grade 1 ([1]; human, in vivo): 3 (10) n (%)
Chills, Grade 2 ([1]; human, in vivo): 0 n (%)
Chills, Grade 3 ([1]; human, in vivo): 0 n (%)
Chills, Grade 4 ([1]; human, in vivo): 0 n (%)
Chills, Overall ([1]; human, in vivo): 3 (10) n (%)
Diarrhea, Grade 1 ([1]; human, in vivo): 9 (30) n (%)
Diarrhea, Grade 2 ([1]; human, in vivo): 4 (13) n (%)
Diarrhea, Grade 3 ([1]; human, in vivo): 1 (3) n (%)
Diarrhea, Grade 4 ([1]; human, in vivo): 0 n (%)
Diarrhea, Overall ([1]; human, in vivo): 14 (47) n (%)
Dry skin, Grade 1 ([1]; human, in vivo): 5 (17) n (%)
Dry skin, Grade 2 ([1]; human, in vivo): 0 n (%)
Dry skin, Grade 3 ([1]; human, in vivo): 0 n (%)
Dry skin, Grade 4 ([1]; human, in vivo): 0 n (%)
Dry skin, Overall ([1]; human, in vivo): 5 (17) n (%)
Fatigue, Grade 1 ([1]; human, in vivo): 6 (20) n (%)
Fatigue, Grade 2 ([1]; human, in vivo): 8 (27) n (%)
Fatigue, Grade 3 ([1]; human, in vivo): 2 (7) n (%)
Fatigue, Grade 4 ([1]; human, in vivo): 0 n (%)
Fatigue, Overall ([1]; human, in vivo): 16 (53) n (%)
Headache, Grade 1 ([1]; human, in vivo): 9 (30) n (%)
Headache, Grade 2 ([1]; human, in vivo): 0 n (%)
Headache, Grade 3 ([1]; human, in vivo): 0 n (%)
Headache, Grade 4 ([1]; human, in vivo): 0 n (%)
Headache, Overall ([1]; human, in vivo): 9 (30) n (%)
Hypokalemia, Grade 1 ([1]; human, in vivo): 1 (3) n (%)
Hypokalemia, Grade 2 ([1]; human, in vivo): 1 (3) n (%)
Hypokalemia, Grade 3 ([1]; human, in vivo): 2 (7) n (%)
Hypokalemia, Grade 4 ([1]; human, in vivo): 0 n (%)
Hypokalemia, Overall ([1]; human, in vivo): 4 (13) n (%)
Hypophosphatemia, Grade 1 ([1]; human, in vivo): 0 n (%)
Hypophosphatemia, Grade 2 ([1]; human, in vivo): 8 (27) n (%)
Hypophosphatemia, Grade 3 ([1]; human, in vivo): 6 (20) n (%)
Hypophosphatemia, Grade 4 ([1]; human, in vivo): 0 n (%)
Hypophosphatemia, Overall ([1]; human, in vivo): 14 (47) n (%)
Nausea, Grade 1 ([1]; human, in vivo): 17 (57) n (%)
Nausea, Grade 2 ([1]; human, in vivo): 2 (7) n (%)
Nausea, Grade 3 ([1]; human, in vivo): 2 (7) n (%)
Nausea, Grade 4 ([1]; human, in vivo): 0 n (%)
Nausea, Overall ([1]; human, in vivo): 21 (70) n (%)
Pain in legs, Grade 1 ([1]; human, in vivo): 4 (13) n (%)
Pain in legs, Grade 2 ([1]; human, in vivo): 0 n (%)
Pain in legs, Grade 3 ([1]; human, in vivo): 0 n (%)
Pain in legs, Grade 4 ([1]; human, in vivo): 0 n (%)
Pain in legs, Overall ([1]; human, in vivo): 4 (13) n (%)
Palmar-plantar erythrodysesthesia syndrome, Grade 1 ([1]; human, in vivo): 3 (10) n (%)
Palmar-plantar erythrodysesthesia syndrome, Grade 2 ([1]; human, in vivo): 1 (3) n (%)
Palmar-plantar erythrodysesthesia syndrome, Grade 3 ([1]; human, in vivo): 1 (3) n (%)
Palmar-plantar erythrodysesthesia syndrome, Grade 4 ([1]; human, in vivo): 0 n (%)
Palmar-plantar erythrodysesthesia syndrome, Overall ([1]; human, in vivo): 5 (17) n (%)
QTc prolongation, Grade 1 ([1]; human, in vivo): 5 (17) n (%)
QTc prolongation, Grade 2 ([1]; human, in vivo): 1 (3) n (%)
QTc prolongation, Grade 3 ([1]; human, in vivo): 0 n (%)
QTc prolongation, Grade 4 ([1]; human, in vivo): 0 n (%)
QTc prolongation, Overall ([1]; human, in vivo): 6 (20) n (%)
Taste alteration, Grade 1 ([1]; human, in vivo): 5 (17) n (%)
Taste alteration, Grade 2 ([1]; human, in vivo): 0 n (%)
Taste alteration, Grade 3 ([1]; human, in vivo): 0 n (%)
Taste alteration, Grade 4 ([1]; human, in vivo): 0 n (%)
Taste alteration, Overall ([1]; human, in vivo): 5 (17) n (%)
Vomiting, Grade 1 ([1]; human, in vivo): 11 (37) n (%)
Vomiting, Grade 2 ([1]; human, in vivo): 1 (3) n (%)
Vomiting, Grade 3 ([1]; human, in vivo): 2 (7) n (%)
Vomiting, Grade 4 ([1]; human, in vivo): 0 n (%)
Vomiting, Overall ([1]; human, in vivo): 14 (47) n (%)
Weight loss, Grade 1 ([1]; human, in vivo): 3 (10) n (%)
Weight loss, Grade 2 ([1]; human, in vivo): 1 (3) n (%)
Weight loss, Grade 3 ([1]; human, in vivo): 0 n (%)
Weight loss, Grade 4 ([1]; human, in vivo): 0 n (%)
Weight loss, Overall ([1]; human, in vivo): 4 (13) n (%)
diarrhea, patients ([1]; human, in vivo): 47%
fatigue, patients ([1]; human, in vivo): 53%
hypophosphatemia, patients ([1]; human, in vivo): 47%
nausea, patients ([1]; human, in vivo): 70%
vomiting, patients ([1]; human, in vivo): 47%
Anemia, Grade 5 [1, 2]: 0 n (%)
Anorexia, Grade 5 [1, 2]: 0 n (%)
Chills, Grade 5 [1, 2]: 0 n (%)
Diarrhea, Grade 5 [1, 2]: 0 n (%)
Dry skin, Grade 5 [1, 2]: 0 n (%)
Fatigue, Grade 5 [1, 2]: 0 n (%)
Headache, Grade 5 [1, 2]: 0 n (%)
Hypokalemia, Grade 5 [1, 2]: 0 n (%)
Hypophosphatemia, Grade 5 [1, 2]: 0 n (%)
Nausea, Grade 5 [1, 2]: 0 n (%)
Pain in legs, Grade 5 [1, 2]: 0 n (%)
Palmar-plantar erythrodysesthesia syndrome, Grade 5 [1, 2]: 0 n (%)
QTc prolongation, Grade 5 [1, 2]: 0 n (%)
Taste alteration, Grade 5 [1, 2]: 0 n (%)
Vomiting, Grade 5 [1, 2]: 0 n (%)
Weight loss, Grade 5 [1, 2]: 0 n (%)
